IC50 and ΔTm data for three molecules are collected here from ChEMBL document CHEMBL4052588, “Design of a Biased Potent Small Molecule Inhibitor of the Bromodomain and PHD Finger-Containing (BRPF) Proteins Suitable for Cellular and in Vivo Studies” (J Med Chem, 2017).

Structures are written as SMILES.

The target of test [1] is T1, ATPase family AAA domain-containing protein 2 (Homo sapiens, UniProt Q6PL18).
T1 sequence (Q6PL18 whole entry): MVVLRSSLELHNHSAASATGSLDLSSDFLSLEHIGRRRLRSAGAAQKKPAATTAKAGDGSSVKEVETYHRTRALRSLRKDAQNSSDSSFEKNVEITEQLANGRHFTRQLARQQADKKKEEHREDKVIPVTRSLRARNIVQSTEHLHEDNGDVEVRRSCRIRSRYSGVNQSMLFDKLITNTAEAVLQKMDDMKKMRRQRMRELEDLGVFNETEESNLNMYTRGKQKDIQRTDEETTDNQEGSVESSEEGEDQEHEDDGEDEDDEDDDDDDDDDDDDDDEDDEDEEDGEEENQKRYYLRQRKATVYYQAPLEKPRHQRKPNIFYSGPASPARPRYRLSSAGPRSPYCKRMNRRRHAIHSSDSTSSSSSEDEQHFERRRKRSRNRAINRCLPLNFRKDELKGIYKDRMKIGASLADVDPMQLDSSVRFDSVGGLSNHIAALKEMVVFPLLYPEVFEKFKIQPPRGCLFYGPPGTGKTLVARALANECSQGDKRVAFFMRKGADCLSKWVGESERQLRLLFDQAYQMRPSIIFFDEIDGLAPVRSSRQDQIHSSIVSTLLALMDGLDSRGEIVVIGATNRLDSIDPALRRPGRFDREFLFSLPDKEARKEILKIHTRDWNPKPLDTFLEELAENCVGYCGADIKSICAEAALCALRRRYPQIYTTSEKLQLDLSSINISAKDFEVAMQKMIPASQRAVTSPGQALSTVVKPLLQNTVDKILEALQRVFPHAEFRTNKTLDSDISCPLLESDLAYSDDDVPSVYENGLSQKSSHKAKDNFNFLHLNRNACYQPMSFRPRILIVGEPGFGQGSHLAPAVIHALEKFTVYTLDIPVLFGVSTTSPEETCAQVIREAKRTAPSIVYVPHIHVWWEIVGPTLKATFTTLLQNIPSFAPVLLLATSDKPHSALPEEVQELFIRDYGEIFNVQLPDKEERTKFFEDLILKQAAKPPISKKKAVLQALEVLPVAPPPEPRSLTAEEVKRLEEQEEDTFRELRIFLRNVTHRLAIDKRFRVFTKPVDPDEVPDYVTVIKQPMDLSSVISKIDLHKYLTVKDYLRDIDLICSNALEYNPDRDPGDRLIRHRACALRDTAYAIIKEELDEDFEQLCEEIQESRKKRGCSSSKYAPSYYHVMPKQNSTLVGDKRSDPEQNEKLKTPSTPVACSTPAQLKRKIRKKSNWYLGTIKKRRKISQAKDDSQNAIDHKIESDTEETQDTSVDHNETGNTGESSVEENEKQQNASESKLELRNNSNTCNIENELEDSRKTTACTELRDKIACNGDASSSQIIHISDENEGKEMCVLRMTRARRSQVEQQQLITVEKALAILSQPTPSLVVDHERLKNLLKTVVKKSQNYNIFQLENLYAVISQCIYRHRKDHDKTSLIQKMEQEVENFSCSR
Put plainly: Inhibition of human ATAD2A expressed in Escherichia coli BL21 after 1 hr by BROMOscan assay.

Test [2] has as its target T2, Bromodomain-containing protein 9 (Homo sapiens) (UniProt Q9H8M2).
T2 sequence (whole entry): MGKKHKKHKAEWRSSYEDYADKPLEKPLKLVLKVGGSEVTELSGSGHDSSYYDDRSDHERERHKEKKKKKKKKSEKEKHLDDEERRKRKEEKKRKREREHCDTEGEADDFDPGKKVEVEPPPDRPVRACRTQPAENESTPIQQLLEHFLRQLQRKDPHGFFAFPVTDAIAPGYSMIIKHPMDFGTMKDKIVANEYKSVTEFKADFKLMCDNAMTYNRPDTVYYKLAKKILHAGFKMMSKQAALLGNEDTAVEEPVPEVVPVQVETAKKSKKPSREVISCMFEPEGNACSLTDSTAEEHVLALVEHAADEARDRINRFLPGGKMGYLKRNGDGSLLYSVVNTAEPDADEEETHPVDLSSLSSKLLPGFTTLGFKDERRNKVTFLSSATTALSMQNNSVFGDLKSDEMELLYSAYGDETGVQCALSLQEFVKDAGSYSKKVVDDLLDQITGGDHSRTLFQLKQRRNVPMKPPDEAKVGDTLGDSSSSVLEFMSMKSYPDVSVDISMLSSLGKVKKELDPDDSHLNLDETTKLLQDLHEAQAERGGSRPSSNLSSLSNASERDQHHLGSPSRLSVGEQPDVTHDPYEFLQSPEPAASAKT

The target of test [3] is ATPase family AAA domain-containing protein 2B (Homo sapiens, UniProt Q9ULI0). Put plainly: Inhibition of human ATAD2B expressed in Escherichia coli BL21 after 1 hr by BROMOscan assay.
Chain of ATPase family AAA domain-containing protein 2B (Q9ULI0 whole entry, the tested form may be a part): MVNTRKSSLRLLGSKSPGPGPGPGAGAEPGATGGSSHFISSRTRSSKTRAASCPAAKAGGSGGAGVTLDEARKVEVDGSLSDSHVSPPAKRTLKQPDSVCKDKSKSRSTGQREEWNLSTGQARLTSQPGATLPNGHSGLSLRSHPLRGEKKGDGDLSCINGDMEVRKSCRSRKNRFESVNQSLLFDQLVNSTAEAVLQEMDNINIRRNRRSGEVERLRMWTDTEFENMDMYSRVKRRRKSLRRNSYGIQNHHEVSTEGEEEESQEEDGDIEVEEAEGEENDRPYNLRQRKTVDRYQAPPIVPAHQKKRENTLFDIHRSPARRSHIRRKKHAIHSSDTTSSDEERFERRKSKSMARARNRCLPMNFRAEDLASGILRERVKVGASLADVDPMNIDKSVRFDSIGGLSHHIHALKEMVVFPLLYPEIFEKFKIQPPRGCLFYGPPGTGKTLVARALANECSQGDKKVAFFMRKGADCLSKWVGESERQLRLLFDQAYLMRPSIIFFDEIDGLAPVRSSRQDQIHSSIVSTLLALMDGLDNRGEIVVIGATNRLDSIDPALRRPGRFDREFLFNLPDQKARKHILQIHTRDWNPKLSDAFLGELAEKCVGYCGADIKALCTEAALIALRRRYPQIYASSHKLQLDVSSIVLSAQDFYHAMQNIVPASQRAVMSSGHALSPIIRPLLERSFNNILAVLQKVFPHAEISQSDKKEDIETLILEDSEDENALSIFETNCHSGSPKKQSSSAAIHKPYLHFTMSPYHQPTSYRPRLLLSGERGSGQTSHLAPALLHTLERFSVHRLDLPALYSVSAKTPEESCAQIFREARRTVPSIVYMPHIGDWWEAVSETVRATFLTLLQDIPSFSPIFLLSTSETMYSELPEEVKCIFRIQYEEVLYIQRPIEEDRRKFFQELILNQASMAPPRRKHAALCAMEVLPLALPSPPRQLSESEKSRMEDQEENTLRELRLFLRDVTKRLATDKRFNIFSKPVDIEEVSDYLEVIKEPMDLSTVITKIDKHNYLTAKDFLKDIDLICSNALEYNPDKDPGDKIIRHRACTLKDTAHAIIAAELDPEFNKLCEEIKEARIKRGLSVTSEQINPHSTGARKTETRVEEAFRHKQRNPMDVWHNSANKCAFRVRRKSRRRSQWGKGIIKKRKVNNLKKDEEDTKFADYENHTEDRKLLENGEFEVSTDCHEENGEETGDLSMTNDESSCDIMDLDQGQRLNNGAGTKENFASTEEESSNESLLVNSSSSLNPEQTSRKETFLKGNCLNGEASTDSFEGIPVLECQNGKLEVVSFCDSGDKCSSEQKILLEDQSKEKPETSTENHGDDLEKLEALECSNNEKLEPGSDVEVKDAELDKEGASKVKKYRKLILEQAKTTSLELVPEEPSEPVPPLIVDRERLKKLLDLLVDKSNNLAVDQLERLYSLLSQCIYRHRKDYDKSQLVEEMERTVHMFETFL

Regarding `Cc1cc2cc(NS(=O)(=O)c3ccc(C#N)cc3)ccc2n(C)c1=O`, the IC50 in test [1] and in test [3] was more than 100 µM throughout. Also, the shift in melting temperature (ΔTm) in test [2] was found to be 3.5 °C.
In the case of `Cc1cc(C#N)ccc1S(=O)(=O)Nc1ccc2c(ccc(=O)n2C)c1`, in test [2], the thermal shift (ΔTm) was found to be 2.2 °C.
For `CCc1cc2cc(NS(=O)(=O)c3ccc(C#N)cc3)ccc2n(CC)c1=O`, the IC50 in test [1] and in test [3] was more than 100 µM in each case.
